The results in this text go back to ChEMBL document CHEMBL5032489, “Selective Discovery of GPCR Ligands within DNA-Encoded Chemical Libraries Derived from Natural Products: A Case Study on Antagonists of Angiotensin II Type I Receptor” (J Med Chem, 2021).

For orientation: IC50 means the concentration at which inhibition is half-maximal. By Kd is commonly meant a measure of binding affinity in units of concentration. A higher Kd goes with weaker binding. What is called Cmax is the highest concentration seen after dosing. By AUC is commonly meant concentration integrated over time. Low readings indicate less exposure, high ones more exposure.

Active and inactive are the calls of the source. The calls are words filed in the database; no cut-off is given here.

For series [1], the target named is T1, Type-1 angiotensin II receptor (Homo sapiens) (UniProt P30556).
T1 sequence (whole entry): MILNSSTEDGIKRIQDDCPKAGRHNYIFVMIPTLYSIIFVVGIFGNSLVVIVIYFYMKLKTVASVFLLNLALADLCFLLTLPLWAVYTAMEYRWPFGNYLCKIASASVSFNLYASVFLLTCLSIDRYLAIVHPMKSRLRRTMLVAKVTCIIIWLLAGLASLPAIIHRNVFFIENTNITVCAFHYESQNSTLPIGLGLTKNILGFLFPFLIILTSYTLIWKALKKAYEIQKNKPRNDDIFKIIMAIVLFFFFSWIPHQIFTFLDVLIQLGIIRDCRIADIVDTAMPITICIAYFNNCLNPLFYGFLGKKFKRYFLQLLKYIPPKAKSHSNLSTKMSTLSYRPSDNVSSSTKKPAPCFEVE
Nature of the series: (§1) Displacement of [125-I]-[Sar1, AngII from AT1R (unknown origin) expressed in Escherichia coli BL 21 (DE3) incubated for 2 hrs by radioimmunoassay.

Series [2] has as its target T2, Type-1 angiotensin II receptor (Homo sapiens, UniProt P30556).
T2 sequence (P30556 whole entry): T1 sequence (whole entry)
The description is as §1.

Series [3] addresses T2, Type-1 angiotensin II receptor. Nature of the series: Binding affinity to AT1R (unknown origin) expressed in Escherichia coli strain BL 21 (DE3) incubated for 20 mins by SDS PAGE analysis.
The test system of series [4] is Rattus norvegicus. Nature of the series: Antihypertensive activity against two-kidney two clip renovascular hypertensive Sprague-Dawley rat model assessed as decrease in diastolic blood pressure at 15 to 30 mg/kg, po measured after 4 days of treatment by noninvasive sphygmomanometry. Type of series: functional, organism-based. Particulars: dose 15-30 mg/kg, time 4.0 day.

Series [5] can be described thus: Cmax in two-kidney two clip renovascular hypertensive Sprague-Dawley rat model at 30 mg/kg, po by HPLC-MS/MS analysis. Type of series: ADME, organism-based. Set-up: route oral, dose 30 mg/kg. The conditions noted are these: in vivo.
Series [6] is described as follows: Cmax in two-kidney two clip renovascular hypertensive Sprague-Dawley rat model at 15 mg/kg, po by HPLC-MS/MS analysis. Type of series: ADME, organism-based. Set-up: route oral, dose 15 mg/kg. The conditions noted are these: in vivo.
Series [7] is described as follows: Cmax in two-kidney two clip renovascular hypertensive Sprague-Dawley rat model at 5 mg/kg, po by HPLC-MS/MS analysis. The conditions noted are these: in vivo. Type of series: ADME, organism-based. More on the design: route oral, dose 5 mg/kg.
Series [8] can be described thus: AUC (0-t) in two-kidney two clip renovascular hypertensive Sprague-Dawley rat model at 30 mg/kg, po by HPLC-MS/MS analysis. Type of series: ADME, organism-based. More on the design: dose 30 mg/kg. The conditions noted are these: in vivo.
A short description of series [9]: AUC (0-t) in two-kidney two clip renovascular hypertensive Sprague-Dawley rat model at 15 mg/kg, po by HPLC-MS/MS analysis. Type of series: ADME, organism-based. Set-up: dose 15 mg/kg. The conditions noted are these: in vivo.
Series [10] can be described thus: AUC (0-t) in two-kidney two clip renovascular hypertensive Sprague-Dawley rat model at 5 mg/kg, po by HPLC-MS/MS analysis. Type of series: ADME, organism-based. Set-up: dose 5 mg/kg. Particulars: in vivo.
Series [11] is described as follows: AUC (0-infinity) in two-kidney two clip renovascular hypertensive Sprague-Dawley rat model at 30 mg/kg, po by HPLC-MS/MS analysis. Type of series: ADME, organism-based. Particulars: in vivo. Set-up: route oral, time infinity, dose 30 mg/kg.
Series [12] is described as follows: AUC (0-infinity) in two-kidney two clip renovascular hypertensive Sprague-Dawley rat model at 15 mg/kg, po by HPLC-MS/MS analysis. Type of series: ADME, organism-based. More on the design: time infinity, route oral, dose 15 mg/kg. Particulars: in vivo.
Series [13] can be described thus: AUC (0-infinity) in two-kidney two clip renovascular hypertensive Sprague-Dawley rat model at 5 mg/kg, po by HPLC-MS/MS analysis. Type of series: ADME, organism-based. More on the design: route oral, time infinity, dose 5 mg/kg. Particulars: in vivo.
Series [14] deals with Rattus norvegicus. Nature of the series: Antihypertensive activity against two-kidney two clip renovascular hypertensive Sprague-Dawley rat model assessed as decrease in systolic blood pressure at 15 to 30 mg/kg, po measured after 4 days of treatment by noninvasive sphygmomanometry. Type of series: functional, organism-based. Particulars: dose 15-30 mg/kg, time 4.0 day.
A short description of series [15]: Toxicity in two-kidney two clip renovascular hypertensive Sprague-Dawley rat model assessed as heart rate at 15 to 30 mg/kg, po measured after 4 days of treatment by noninvasive sphygmomanometry. Type of series: organism-based. Particulars: in vivo, 96 h, dose 15-30 mg/kg, time 4 day.
Series [16] concerns Rattus norvegicus. Nature of the series: Antihypertensive activity against two-kidney two clip renovascular hypertensive Sprague-Dawley rat model assessed as decrease in systolic blood pressure at 8.3 mg/kg, po measured after 4 days of treatment by noninvasive sphygmomanometry. Type of series: functional, organism-based. The conditions noted are these: time 4.0 day.

As for `NC[C@H](O)c1ccc(O)c(O)c1`, in series [1], the result was inactive.

As for `Cc1cc(Cn2cnc3c2C[C@@H](C(=O)O)N(C(=O)C(c2ccccc2)c2ccccc2)C3)ccc1N(C)C`, in series [1], the outcome was inactive.

`O=C(O)/C=C/c1ccc(O)c(O)c1` [CAFFEIC ACID] came in with an IC50 in series [2] of 125 nM.

`CCOC(=O)[C@@H](Cc1ccc(F)cc1)NC(=O)[C@@H](CC1CCCCC1)NC(=O)[C@@H](C)NC(=O)/C=C/c1ccc(O)c(O)c1`: binding in series [3] was characterised by a dissociation constant (Kd) of 0.49 nM. Further, the IC50 in [2] worked out at 19.6 nM. For the same compound, the result in [4] and in series [14] was Active. In addition, the Cmax amounted to 446 ng/mL in series [5], 220 ng/mL in series [6] and 80.6 ng/mL in series [7]. Also, the AUCt in [8] turned out to be 34243 µg·min/L; in series [9], 18123.5 µg·min/L; in series [10], 5707.6 µg·min/L. Also, the AUC was 35096.1 µg·min/L in series [11], 19332.5 µg·min/L in [12] and 6088 µg·min/L in series [13]. In series [15], the Activity result was “Non-Toxic”.

Consider `CCCCC(=O)N(Cc1ccc(-c2ccccc2-c2nnn[nH]2)cc1)[C@H](C(=O)O)C(C)C`, for which the result in [16] was Active.
